{
  "source": "patent US20230054976A1",
  "about": "“METHODS FOR INHIBITION OF ALPHA-SYNUCLEIN mRNA USING SMALL MOLECULES” (The Scripps Research Institute, priority 2019, published 2023)",
  "key": {"[1]": {"tested_on": "control plasmid lacking 5′ UTR", "experiment": "In vitro translation assay, control lacking 5′ UTR", "format": "biochemical", "description": "(§1) Luciferase assay. The effect of Synucleozid treatment on translation from various IRE containing transcripts was determined using luciferase reporter assay. SH-SY5Y cells stably expressing 5' UTR were treated with Synucleozid for 48 h, washed with PBS and lysed with Passive Lysis Buffer for 15 min at room temperature. Luciferase reporter activity in each lysate was monitored using the dual luciferase reporter assay system kit (Promega. Madison, Wis., USA) according to the manufacturer's instructions. Luminescence from firefly luciferase reaction was measured using a microplate luminometer (Wallac 1420, Perkin Elmer) at 485 nm excitation and 535 nm emission wavelengths. Firefly luciferase reaction was then quenched by adding Stop & Glo reagent, and the internal fluorescence from GFP measured at the same setting was used to normalize luciferase expression. Luciferase reporter activity was expressed as percent change compared to the respective vehicle-treated control cells. In vitro translation assay. The mRNA template for in vitro translational assays was transcribed from the pIRES-Luc-EGFP-puro and pCDH-α-syn-5'-UTR-Luc-EGFP-puro plasmids by using an in vitro transcription system (RiboMax, Promega) with forward primer: [NT] and reverse primer: [NT]. […] Translation proceeded at 30° C. for 90 min, and then luminescence was measured with a Biomek FLx800 plate reader (1.0 s integration time)."}, "5′ UTR of SNCA mRNA": {"tested_on": "5′ UTR of SNCA mRNA", "experiment": "In vitro translation assay (rabbit reticulocyte lysate), SNCA-5′-UTR-Luc mRNA", "format": "biochemical, human", "description": "as §1"}, "tRNA": {"tested_on": "tRNA", "experiment": "Competitive binding assay (2-AP), tRNA", "quoted_text": "I and I0 are the observed fluorescence intensity in the presence and absence of 2-AP RNA. Δε is the difference between the fluorescence intensity in the absence and presence of infinite 2-AP RNA. […] EC50 was calculated from Eq. (1). […] The change of fluorescence intensity was fit to Eq. (2):\nθ is the percentage of 2-AP RNA bound. [RNA] is the concentration of 2-AP RNA. EC50 is the EC50 of Synucleozid determined in the assay above. [Synucleozid] is the concentration of Synucleozid. Cc is the concentration of competitive RNA. Kd is competitive dissociation constant and A is a constant."}, "[2]": {"biological_target": "T1, IRP-2:SNCA IRE RNA complex (Homo sapiens, UniProt P48200)", "T1 construct": "purchased Abnova", "T1 sequence (P48200 whole entry, species assumed, one chain of several)": "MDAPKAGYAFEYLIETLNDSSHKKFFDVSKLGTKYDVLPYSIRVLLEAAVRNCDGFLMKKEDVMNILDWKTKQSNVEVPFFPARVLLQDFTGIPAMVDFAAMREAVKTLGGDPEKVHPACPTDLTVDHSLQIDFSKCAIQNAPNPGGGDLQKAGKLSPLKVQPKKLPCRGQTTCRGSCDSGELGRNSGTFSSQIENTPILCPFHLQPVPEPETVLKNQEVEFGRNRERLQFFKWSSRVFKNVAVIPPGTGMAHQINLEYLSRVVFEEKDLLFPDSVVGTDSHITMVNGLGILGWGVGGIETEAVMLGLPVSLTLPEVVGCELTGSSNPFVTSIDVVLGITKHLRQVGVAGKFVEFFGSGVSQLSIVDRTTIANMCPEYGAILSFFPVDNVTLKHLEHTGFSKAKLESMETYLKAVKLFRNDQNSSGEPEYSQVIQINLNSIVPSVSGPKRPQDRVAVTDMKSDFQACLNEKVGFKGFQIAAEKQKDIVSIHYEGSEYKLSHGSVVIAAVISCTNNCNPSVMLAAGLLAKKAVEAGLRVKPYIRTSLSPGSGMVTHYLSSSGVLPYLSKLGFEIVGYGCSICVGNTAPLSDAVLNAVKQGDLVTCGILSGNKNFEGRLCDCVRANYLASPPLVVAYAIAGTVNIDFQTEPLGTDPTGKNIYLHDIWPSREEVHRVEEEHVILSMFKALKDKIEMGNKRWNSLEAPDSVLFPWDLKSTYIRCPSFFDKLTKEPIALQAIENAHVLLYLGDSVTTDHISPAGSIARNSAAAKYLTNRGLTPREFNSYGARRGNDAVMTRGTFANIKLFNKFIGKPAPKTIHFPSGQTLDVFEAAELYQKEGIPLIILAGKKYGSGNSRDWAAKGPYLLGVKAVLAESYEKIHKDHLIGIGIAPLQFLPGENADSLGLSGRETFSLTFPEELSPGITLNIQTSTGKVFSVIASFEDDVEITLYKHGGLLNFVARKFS", "experiment": "In vitro displacement of IRPs by gel mobility shift assay, IRP-2", "format": "binding", "conditions": "0.2, 1, 5 μM; pre-incubation 1-60 min", "description": "In vitro displacement of IRPs by gel mobility shift assays. SNCA IRE hairpin RNA was 5′-end labeled with [γ-^32P]ATP as previously described^5. Approximately, 2 pmoles of ^32P labeled RNA per 20 μL reaction was folded in 1× Assay Buffer by heating at 65° C. for 5 min and slowly cooling to room temperature. As indicated, vehicle, Synucleozid (0.2, 1, 5 μM) or unlabeled IRE RNA (1 μM, folded as described above and used as a positive control) was added to the samples, and the samples were incubated at room temperature for varying amounts of time (1-60 min as indicated). Then, 0.5 μg IRP-1 or IRP-2 (Abnova) was added, and the samples were incubated at room temperature for an additional 30 min. An equal volume of 2× Native Gel Loading Buffer (2×TBE, 50% Glycerol, 0.025% (w/v) Bromophenol blue and Xylene cyanol FF) was added to each sample. Note, Native Gel Loading Buffer added to Synucleozid-treated samples was supplemented with the same concentration of Synucleozid as in the sample to maintain a constant concentration. IRP:IRE complexes and free IRE were separated on a native 15% polyacrylamide prepared 1×TBE supplemented with the same concentration of Synucleozid as in compound-treated samples, and imaged using a Bio-Rad PMI phosphorimager. Images were quantified with BioRad's Quantity One software."}, "SNCA mRNA": {"tested_on": "SNCA mRNA", "experiment": "Polysome profiling", "format": "cell-based, human", "conditions": "1 μM, 48 h", "description": "Polysome profiling. Polysome profiling studies were completed similarly to previously described methods (9, 10). SH-SY5Y cells were treated with DMSO vehicle or Synucleozid (1 μM) at 50% confluency. After 48 h, 100 μg/mL (final concentration) cycloheximide (CHX) was added to dishes, and cells were incubated at 37° C. for 10 min. After two times washing with ice-cold 1×DPBS supplemented with 100 μg/mL CHX, cells were scraped with ice-cold 300 μL 1×DPBS supplemented with 100 μg/mL CHX. Three 100 mm dishes of cells were prepared and combined as one profiling sample. After centrifugation, cell pellets were lysed with 250 μL of ice-cold polysome extraction buffer [10 mM NaCl, 10 mM MgCl2, 10 mM Tris, pH 7.5, 1% Triton X-100, 1% sodium deoxycholate, 1 mM DTT supplemented with […] and 0.2 U/μL RNasin (Promega)]. The lysate was transferred to an ice-cold Eppendorf tube, gently vortexed and centrifuged for 15 min at 13,200 rpm, 4° C. The supernatant was layered onto 10 mL linear 10-50% sucrose gradients containing 20 mM HEPES (pH 7.4), 5 mM MgCl2, 100 mM KCl, […], and 100 µg/mL CHX. The sucrose gradients were centrifuged at 40,000 rpm for 2 h at 4° C. then fractionated using a fraction collector (Brandel Inc.). The absorbance of cytosolic RNA was recorded at 254 nm by an inline UV monitor. A 400 μL aliquot from each fraction was collected. Then, RNA extraction, cDNA synthesis and RT-qPCR were performed as described above."}, "ferritin 5′ UTR": {"tested_on": "ferritin 5′ UTR", "experiment": "Luciferase reporter assay, ferritin 5′ UTR, SH-SY5Y cells", "format": "cell-based, human", "conditions": "1 μM"}, "[3]": {"tested_on": "wild type A bulge IRE RNA", "experiment": "Thermal melting experiment, wild type IRE", "quoted_text": "Thermal melting experiment. […] The RNA was heated to 65° C. and slowly cooled to room temperature. […] The absorbance of solution was monitored at 260 nm by a Beckman Coulter DU 800 Spectrophotometer. Background of buffer or buffer plus compound was subtracted from the signal. Resulted melting curves were fitted with MeltWin v3.5 to determine ΔG°, ΔH°, ΔS°, and Tm. The melting temperature was compared to the first derivative value from the raw data for similarity."}},
  "data": [
    {"smiles": "N=C(N)c1ccc(Nc2ccc(-c3cc4ccc(C(=N)N)cc4[nH]3)cc2)cc1", "note": "[Synucleozid A]", "values": [
      {"measurement": "inhibitory effect on construct lacking SNCA 5′ UTR", "setting": "[1]", "value": "No inhibitory effect"},
      {"measurement": "inhibition of luciferase expression in vitro, SNCA-5′-UTR-Luc", "setting": "5′ UTR of SNCA mRNA", "value": "inhibited luciferase expression in a concentration-dependent manner"},
      {"measurement": "competitor RNA concentration needed for recovery of 2-AP emission", "setting": "tRNA", "value": "> 100", "unit": "µM"},
      {"measurement": "effect on binding of IRP-2 to SNCA IRE RNA", "setting": "[2]", "value": "Neither Synucleozid concentration (0.2, 1, 5 μM) nor pre-incubation time (1, 5, 15, 60 min) has any significant effect"},
      {"measurement": "association of ribosomes with a control RNA", "setting": "SNCA mRNA", "value": "does not affect"},
      {"measurement": "decrease of SNCA mRNA associated with active polysomes", "setting": "SNCA mRNA; SH-SY5Y cells", "value": "~20", "unit": "%"},
      {"measurement": "SNCA mRNA associated with incomplete ribosomes", "setting": "SNCA mRNA; fractions 1-5", "value": "increase"},
      {"measurement": "inhibition of translation, luciferase fused to ferritin 5′ UTR", "setting": "ferritin 5′ UTR", "value": "~10", "unit": "%"},
      {"measurement": "increase of Tm of wild type IRE", "setting": "[3]", "value": 3, "unit": "°C"},
      {"measurement": "Tm of wild type IRE in presence of Synucleozid", "setting": "[3]; from 51.4 without compound", "value": 54.8, "unit": "°C"},
      {"measurement": "ΔG37° of wild type IRE in presence of Synucleozid", "setting": "[3]; from −2.91 without compound", "value": -3.23, "unit": "kcal/mol"}
    ]}
  ]
}
